Where two headings read alike, the source gives them in different places. Starred links: 1 amine or outer side, 2 acyl side, 3 side chain; linkers in the order of their positions; H or OH if unused. Positions of bridges follow the written chain, without caps; N, C: chain ends. Non-standard residues stand in square brackets, D forms with d. Residues, ends and D or L forms follow the SMILES beside them. Groups on a side chain read outwards from the residue. Primed or numbered codes have the meaning given here. *: point of attachment. Ala(1-CH2CO2H-4-piperidyl) = N[C@@H](CC1CCN(CC(=O)O)CC1)C(=O)O; Ala(piperidin-4-yl) = O=C([C@H](CC1CCN([*:3])CC1)N[*:1])[*:2]; DOTA = O=C(O)CN1CCN(CC(=O)O)CCN(CC(=O)*)CCN(CC(=O)O)CC1; Trp(5-F) = N[C@@H](Cc1c[nH]c2ccc(F)cc12)C(=O)O; X1 = C[C@@H](c1ccccc1)[C@H](N[*:1])C(=O)[*:2]; PEG4′ = 4x 3-(2-aminoethoxy)propanoic acid; γGlu = O=C(O)[C@H](CCC(=O)[*:2])N[*:1]; 1Nal = N[C@@H](Cc1cccc2ccccc12)C(=O)O; Ala(4-THP) = N[C@@H](CC1CCOCC1)C(=O)O; Val(3-OH) = CC(C)(O)[C@H](N)C(=O)O; 4Pal = N[C@@H](Cc1ccncc1)C(=O)O; PEG4 = NCCOCCOCCOCCOCCC(=O)O; Tle = CC(C)(C)[C@H](N)C(=O)O; hLeu = CC(C)CC[C@H](N)C(=O)O
Tests used:
[1] = target: T1, human 4lg B7-H3 (Homo sapiens, UniProt Q5ZPR3); assay: Affinity determination by surface plasmon resonance (SPR) to 4Ig B7-H3
T1 sequence (Q5ZPR3 29-534): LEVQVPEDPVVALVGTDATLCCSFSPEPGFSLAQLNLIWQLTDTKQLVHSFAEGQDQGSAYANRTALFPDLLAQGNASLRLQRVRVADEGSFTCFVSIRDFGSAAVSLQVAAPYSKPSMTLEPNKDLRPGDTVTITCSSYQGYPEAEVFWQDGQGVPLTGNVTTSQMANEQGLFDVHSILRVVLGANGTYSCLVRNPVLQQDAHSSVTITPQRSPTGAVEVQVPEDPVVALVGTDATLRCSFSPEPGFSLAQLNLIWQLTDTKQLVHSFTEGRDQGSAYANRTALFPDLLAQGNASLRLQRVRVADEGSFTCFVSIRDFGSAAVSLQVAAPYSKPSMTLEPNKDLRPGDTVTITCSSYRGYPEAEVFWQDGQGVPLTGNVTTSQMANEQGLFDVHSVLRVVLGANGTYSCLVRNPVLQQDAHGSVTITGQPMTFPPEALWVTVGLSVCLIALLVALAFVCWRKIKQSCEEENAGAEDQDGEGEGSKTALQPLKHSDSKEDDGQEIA

[2] = tested on: Calu-6 cell line; assay: Net internalization of [177Lu]Lu-labeled peptide in Calu-6 cells; type: cell-based, Human; conditions: 1 hour, 37° C., glycine pH 2.5 acid wash
Summary of the method: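 Peptide conjugate labeled with [177Lu]LuCl3 at pH ~5, 80 °C, 17–20 min, and purity checked by RP-HPLC. B7-H3-expressing human Calu-6 lung cancer cells at 5 million cells/mL in 1% PBSA. Internalized fraction: counts left after two 3 min 50 mM glycine pH 2.5 washes and NaOH lysis, gamma counted against bound fraction.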

[3] = tested on: Calu-6 tumors; assay: Ex vivo biodistribution of radiolabeled peptides in nude mice bearing Calu-6 tumors; conditions: [177Lu]Lu labeling, 24 h post-injection
Method: Mice were euthanized at pre-determined time points and selected tissues were resected and collected into pre-weighed tubes. The tubes were then reweighed post resection, the difference giving the weight of each tissue. Radioactivity in each tissue was measured using a gamma counter. Counts were decay corrected to the time of injection and percentage of injected activity per gram (% IA/g) was calculated for each tissue based on the injected activity into each individual mouse. Injected activity was converted to counts based on the sensitivity of the gamma counter. The counts in tissue were then converted to the percentage of injected activity and this was divided by the mass of tissue to give % IA/g.

[4] = target: T2, 2Ig B7-H3 (Homo sapiens, UniProt Q5ZPR3); assay: SPR binding affinity to 2Ig B7-H3
T2 sequence (Q5ZPR3 29-316 isoform Q5ZPR3-2 limits assumed): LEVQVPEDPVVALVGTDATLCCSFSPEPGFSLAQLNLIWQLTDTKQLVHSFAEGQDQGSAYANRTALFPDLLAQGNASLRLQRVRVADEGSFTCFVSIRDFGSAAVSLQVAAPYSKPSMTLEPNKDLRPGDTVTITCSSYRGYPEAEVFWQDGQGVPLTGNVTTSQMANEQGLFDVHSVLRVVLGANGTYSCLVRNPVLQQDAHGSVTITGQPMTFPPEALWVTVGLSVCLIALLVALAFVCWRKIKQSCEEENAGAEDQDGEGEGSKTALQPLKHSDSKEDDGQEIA

[5] = tested on: Calu-6 cell line; assay: Cell associated (bound) fraction of [177Lu]Lu-labeled peptide in Calu-6 cells; type: cell-based, Human; conditions: 1 hour, 37° C.
Summary of the method: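 Peptide conjugate was labelled with [177Lu]LuCl3 in ammonium acetate pH ~5 at 80 °C for 17-20 min, with purity checked by RP-HPLC. Calu-6 suspensions (5 million cells/mL in 1% PBSA) were incubated with 0.8 μCi for 1 h at 37 °C. Cell pellets were gamma-counted after two cold PBS/BSA washes, giving the bound fraction against the unbound supernatant plus washes.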

[6] = target: T3, 4lg-B7-H3 (Homo sapiens, UniProt Q5ZPR3, S143D); assay: X-ray crystal structure of compound bound to 4lg-B7-H3
T3 sequence (Q5ZPR3 29-456 S143D): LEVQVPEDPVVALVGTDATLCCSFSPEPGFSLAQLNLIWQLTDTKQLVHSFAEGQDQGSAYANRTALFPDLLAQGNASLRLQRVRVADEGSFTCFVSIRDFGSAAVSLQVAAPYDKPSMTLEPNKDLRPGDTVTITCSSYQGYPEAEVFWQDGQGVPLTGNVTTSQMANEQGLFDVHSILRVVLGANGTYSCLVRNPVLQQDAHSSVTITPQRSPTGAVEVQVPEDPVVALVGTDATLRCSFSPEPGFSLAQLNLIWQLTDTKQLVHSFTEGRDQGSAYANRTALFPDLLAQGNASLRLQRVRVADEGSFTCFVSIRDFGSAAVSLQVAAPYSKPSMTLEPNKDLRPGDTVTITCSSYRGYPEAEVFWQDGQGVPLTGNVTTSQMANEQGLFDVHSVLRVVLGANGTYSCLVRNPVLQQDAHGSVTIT
Method: The x-ray crystal structure of an exemplary compound of the disclosure bound to 4lg-B7-H3 was determined. Suitable constructs for B^7H3 expression had been previously established by PROTEROS. Expression of B^7H3 was performed according to previously established protocols. A purification protocol was established and homogeneous protein was produced in preparative amounts. The protein was purified comprising affinity and gel filtration chromatography steps. This procedure yielded homogenous protein with a purity greater 95% as judged from Coomassie stained SDS-PAGE. A 4lg-B7-H3 sequence from amino acid 29-456 was employed. The following sequence corresponds to amino acids 1-534 of 4lg-B7-H3:
The purified protein was used in crystallization trials employing both, a standard screen with approximately 1200 different conditions, as well as crystallization conditions identified using literature data. Conditions initially obtained have been optimized using standard strategies, systematically varying parameters critically influencing crystallization, such as temperature, protein concentration, drop ratio, and others. These conditions were also refined by systematically varying pH or precipitant concentrations.
A cryo-protocol was established using PROTEROS Standard Protocols. Crystals have been flash-frozen and measured at a temperature of 100 K. The X-ray diffraction data have been collected from complex crystals of 4lg-B7-H3 with the ligand of Cpd #200 at the SWISS LIGHT SOURCE (SLS, Villigen, Switzerland) using cryogenic conditions. The crystals belong to space group P 61 2 2. Data were processed using the programs autoPROC, XDS and autoPROC, AIMLESS. […]
Subsequent model building and refinement was performed according to standard protocols with COOT and the software package CCP4, respectively. For the calculation of the free R-factor, a measure to cross-validate the correctness of the final model, about 4.8% of measured reflections were excluded from the refinement procedure (Table 27). […]

[7] = target: T4, B7-H3 on Calu-6 cells (human, UniProt Q5ZPR3 29-534); assay: 177Lu-labelled peptide on Calu-6 cells, % cell associated fraction; B = 25<%<=50
T4 construct: whole, on cells
T4 sequence (looked up): T1 sequence (Q5ZPR3 29-534)

[8] = target: Biotinylated human 4Ig B7-H3 (human) (UniProt Q5ZPR3); assay: SPR 25C; A = KD<=1.0 nM
[9] = target: B7-H3 on Calu-6 cells (human) (UniProt Q5ZPR3); assay: 177Lu-labelled peptide on Calu-6 cells, % cell associated fraction; C = >50%
[10] = target: Biotinylated human 4Ig B7-H3 (human) (UniProt Q5ZPR3); assay: SPR 37C; A = KD<=1.0 nM

CC(=O)N[C@@H](CCC(C)C)C(=O)N[C@@H](Cc1ccc(O)cc1)C(=O)N[C@H]1CSSC[C@@H](C(=O)N[C@@H](Cc2c[nH]c3ccc(F)cc23)C(=O)N[C@H](C(=O)N[C@H](C(=O)N[C@H](CCC(=O)O)C(N)=O)C(C)(C)O)[C@@H](C)c2ccccc2)NC(=O)[C@H](Cc2ccc(O)cc2)NC(=O)[C@H](C(C)C)NC(=O)[C@H](CC(=O)O)NC(=O)[C@H](CC2CCN(C(=O)CCOCCOCCOCCOCCNC(=O)CN3CCN(CC(=O)O)CCN(CC(=O)O)CCN(CC(=O)O)CC3)CC2)NC(=O)[C@H](CC2CCN(CC(=O)O)CC2)NC(=O)CNC(=O)[C@H](C(C)(C)C)NC1=O [compound 496, Ac-hLeu-Y-C-Tbg-G-Pip(CH2COOH)Ala-Pip(PEG4-DOTA)Ala-D-V-Y-C-5FW-[(2S, 3S)beta-Me-Phe]-hydroxyVal-dGlu-CONH2] (Ac-[hLeu]YC[Tle]G[Ala(1-CH2CO2H-4-piperidyl)][Ala(piperidin-4-yl)]([PEG4-DOTA])DVYC[Trp(5-F)][X1][Val(3-OH)][dE]-NH2; disulfide 3-11)
Kd [1]: < 1 nM | % net internalization [2]: A (%≤25) | kidney uptake (% IA/g) [3]: C (0 < % IA/g ≤ 10 in kidney) | tumor uptake (% IA/g) [3]: A (0 < % IA/g ≤ 5 in tumor) | Kd [4]: 526 nM | % cell associated fraction [5]: B (25<%≤50)

CC(=O)N[C@@H](CCC(C)C)C(=O)N[C@@H](Cc1ccc(O)cc1)C(=O)N[C@H]1CSSC[C@@H](C(=O)N[C@@H](Cc2c[nH]c3ccc(F)cc23)C(=O)N[C@H](C(=O)N[C@H](C(=O)N[C@H](C)C(=O)O)C(C)(C)O)[C@@H](C)c2ccccc2)NC(=O)[C@H](Cc2ccc(O)cc2)NC(=O)[C@H](C(C)C)NC(=O)[C@H](CC(=O)O)NC(=O)[C@H](CC2CCN(C(=O)CCOCCOCCOCCOCCNC(=O)CN3CCN(CC(=O)O)CCN(CC(=O)O)CCN(CC(=O)O)CC3)CC2)NC(=O)[C@H](CC2CCN(CC(=O)O)CC2)NC(=O)CNC(=O)[C@H](C(C)(C)C)NC1=O [compound 526, Ac-hLeu-Y-C-Tbg-G-Pip(CH2COOH)Ala-Pip(PEG4-DOTA)Ala-D-V-Y-C-5FW-[(2S, 3S)beta-Me-Phe]-hydroxyVal-dAla-COOH] (Ac-[hLeu]YC[Tle]G[Ala(1-CH2CO2H-4-piperidyl)][Ala(piperidin-4-yl)]([PEG4-DOTA])DVYC[Trp(5-F)][X1][Val(3-OH)][dA]-OH; disulfide 3-11)
Kd [1]: < 1 nM | kidney uptake (% IA/g) [3]: D (% IA/g > 10 in kidney) | tumor uptake (% IA/g) [3]: A (0 < % IA/g ≤ 5 in tumor) | Kd [4]: 380 nM

CC(=O)N[C@@H](CCC(C)C)C(=O)N[C@@H](Cc1ccc(O)cc1)C(=O)N[C@H]1CSSC[C@@H](C(=O)N[C@@H](Cc2c[nH]c3ccc(F)cc23)C(=O)N[C@@H](Cc2ccccc2)C(=O)N[C@H](C(=O)N[C@H](CCCCNC(=O)CN2CCN(CC(=O)O)CCN(CC(=O)O)CCN(CC(=O)O)CC2)C(N)=O)[C@@H](C)O)NC(=O)[C@H](Cc2ccc(O)cc2)NC(=O)[C@H](C(C)C)NC(=O)[C@H](CC(=O)O)NC(=O)[C@H](CC2CCOCC2)NC(=O)[C@H](CCCCN)NC(=O)CNC(=O)[C@H](C(C)C)NC1=O [compound 200, Ac-hLeu-Y-C-V-G-K-ThpA-D-V-Y-C-5FW-F-Thr-dLys(DOTA)-CONH2] (Ac-[hLeu]YCVGK[Ala(4-THP)]DVYC[Trp(5-F)]FT[dK](DOTA)-NH2; disulfide 3-11)
Kd ([1]; read-out: SPR KD—25° C., 4Ig B7-H3, 25° C. flow cell temperature): < 1 nM | Kd ([1]; read-out: SPR KD—37° C., 4Ig B7-H3, 37° C. flow cell temperature): 1 to 10 nM | % net internalization [2]: A (%≤25) | Resolution [Å] ([6]; complex crystals of 4lg-B7-H3 with ligand, parenthesis = highest resolution bin): 2.98 (3.28-2.98) Å | specific hydrogen bonds to 4lg-B7-H3 ([6]; distance of less than 3.5 Å of donor and acceptor atoms): eleven | ligand binding site in 4lg-B7-H3 ([6]; extracellular domain residues 29-456): bound between the Ig-like C2-type 1 and Ig-like V-type 2 domains | % cell associated fraction [5]: C (%>50)

B1: Cpd 203 (peptide)
peptide: Ac-[hLeu]YCIGK(DOTA)[Ala(piperidin-4-yl)]DVYC[Trp(5-F)]F[Val(3-OH)]-NH2
modifications: disulfide 3-11
% cell associated fraction [7]: 25 to 50%

B2: Cpd 303 (peptide)
peptide: Ac-[hLeu]YC[Tle]GK[Ala(4-THP)]DVYC[Trp(5-F)]F[Val(3-OH)][dK](DOTA)-OH
modifications: disulfide 3-11 (inferred)
KD [8]: < 1 nM | % cell associated fraction [9]: > 50% | KD [10]: < 1 nM

B3: Cpd 252 (peptide)
peptide: Ac-[hLeu]YC[Tle]GK([γGlu-DOTA])[4Pal]DVYC[1Nal]FP-NH2
modifications: disulfide 3-11
% cell associated fraction [7]: 25 to 50%

B4: Cpd 230 (peptide)
peptide: Ac-[hLeu]YCIGK(DOTA)[4Pal]DVYC[Trp(5-F)]F[Val(3-OH)]-NH2
modifications: disulfide 3-11
% cell associated fraction [7]: 25 to 50%

B5: Cpd 310 (peptide)
peptide: Ac-[hLeu]YC[Tle]GK[Ala(4-THP)]DVYC[Trp(5-F)]F[Val(3-OH)][dK]([PEG4′-DOTA])-OH
modifications: disulfide 3-11 (inferred)
KD [8]: < 1 nM | % cell associated fraction [9]: > 50% | KD [10]: < 1 nM

From US20250296959A1, “B7-H3 TARGETING PEPTIDES AND CONSTRUCTS THEREOF” (Mariana Oncology Inc., priority 2024, published 2025)
